Data on five compounds can be found in ChEMBL document CHEMBL4316596, “Antimicrobial Peptides with High Proteolytic Resistance for Combating Gram-Negative Bacteria” (J Med Chem, 2019).

A word on the MBC: it is the smallest concentration meeting the test's criterion for killing. High values mean weaker bactericidal potency, low ones greater bactericidal potency.

Data set [1] concerns Escherichia coli. Briefly: Bactericidal activity against Escherichia coli ATCC 25922 assessed as elimination of bacterial cells at MBC after 30 mins by time kill assay. It is filed as functional.
For another data set, the target named is Chymotrypsin (Homo sapiens, UniProt Q99895+P17538+P40313+Q6GPI1). As to the kind of experiment: Stability of the compound assessed as chymotrypsin (unknown origin)-mediated compound hydrolysis after 1 hrs by SDS-PAGE analysis. It is filed as ADME, protein assay.
Data set [2] in a line: Stability of the compound assessed as Tritirachium album proteinase K-mediated compound hydrolysis after 1 hrs by SDS-PAGE analysis. In kind it is ADME. Conditions: parengyodontium album.
Another data set deals with Trypsin (Homo sapiens, UniProt P07477+P07478+P35030). As to the kind of experiment: Stability of the compound assessed as trypsin (unknown origin)-mediated compound hydrolysis after 1 hrs by SDS-PAGE analysis. In kind it is ADME, protein assay.
Data set [3] deals with Escherichia coli. As to the kind of experiment: Induction of cytoplasmic membrane depolarization in Escherichia coli ATCC 25922 at 2 uM up to 5000 secs by DiSC3-5 dye-based fluorescence spectrophotometric method. In kind it is functional, organism-based.
Data set [4] can be described thus: Stability of the compound assessed as pepsin (unknown origin)-mediated compound hydrolysis after 1 hrs by SDS-PAGE analysis. It is filed as ADME. Conditions: human.
A short description of data set [5]: Hemolytic activity against human RBC at 1 to 128 uM after 1 hr. To be noted: red blood cells (erythrocytes), read-out: Activity. It is filed as ADME, cell-based, Erythrocyte.
Data set [6] can be described thus: Hemolytic activity against human RBC at 128 uM after 1 hr. It is filed as ADME, cell-based, Erythrocyte. To be noted: red blood cells (erythrocytes), read-out: Activity.
Data set [7] has as its system Escherichia coli. Briefly: Bactericidal activity against Escherichia coli ATCC 25922 assessed as elimination of bacterial cells at MBC after 5 mins by time kill assay. It is filed as functional.
Data set [8] can be described thus: Cytotoxicity against mouse RAW264.7 cells assessed as cell viability at 4 uM after 18 to 24 hrs by MTT assay relative to control. Conditions: read-out: Activity. It is filed as cell-based. Background: Formazan colour is commonly taken as a measure of viable cells.
Data set [9] can be described thus: Cytotoxicity against IPECJ2 cells assessed as cell death at 16 uM after 18 to 24 hrs by MTT assay relative to control. It is filed as cell-based, Sus scrofa. To be noted: pig.
A further data set has as its system HEK-293T. Briefly: Cytotoxicity against HEK293T cells assessed as cell death at 32 uM after 18 to 24 hrs by MTT assay relative to control. It is filed as cell-based. Conditions: human.
Data set [10] in a line: Toxicity in ICR mouse assessed as effect on ALT levels in serum at 40 mg/kg, ip administered every 12 hrs for 3 days measured at 72 hrs post dose. Conditions: in vivo. In kind it is organism-based.
The nature of data set [11]: Toxicity in ICR mouse assessed as effect on ALT levels in serum at 20 mg/kg, ip administered every 12 hrs for 3 days measured at 72 hrs post dose. To be noted: in vivo. It is filed as organism-based.
Data set [12] relates to Lipid bilayer. Briefly: Induction of membrane disruption in LPS/PC/PG unilamellar vesicles assessed as calcein-entrapped liposome leakage at 2 uM after 15 mins by fluorescence assay.
The test system of data set [13] is RAW264.7. Briefly: Inhibition of LPS-stimulated TNFalpha production in mouse RAW264.7 cells at 16 uM after 20 hrs by […]. It is filed as functional, cell-based. In general terms: The Griess reaction detects nitrite, a stable product of nitric oxide.
The nature of data set [14]: Renal toxicity in ICR mouse assessed as effect on BUN levels in serum at 20 mg/kg, ip administered every 12 hrs for 3 days measured at 72 hrs post dose. In kind it is organism-based. To be noted: in vivo.
Data set [15] concerns Escherichia coli. As to the kind of experiment: Bactericidal activity against Escherichia coli ATCC 25922 using FITC-labelled peptide incubated for 4 hrs followed by culture spread on agar plates and cultured overnight. It is filed as functional. To be noted: ATCC 25922, 4 h.
Data set [16] concerns Escherichia coli. Briefly: Bactericidal activity against Escherichia coli ATCC 25922 assessed as elimination of bacterial cells at MBC after 60 mins by time kill assay. In kind it is functional.
Data set [17] is described as follows: Stability of the compound assessed as pepsin (unknown origin)-mediated compound hydrolysis by LC-MS analysis. It is filed as ADME. To be noted: human.
In data set [18] the test system is Escherichia coli. As to the kind of experiment: Induction of cell membrane disruption in Escherichia coli ATCC 25922 at MBC after 30 mins using FITC-labelled peptides by propidium iodide-staining based confocal fluorescent microscopy. In kind it is organism-based.
The test system of data set [19] is RAW264.7. Briefly: Inhibition of LPS-stimulated NO production in mouse RAW264.7 cells at 16 uM after 20 hrs by Griess reagent-based assay. It is filed as functional, cell-based.
Data set [20] relates to Lipopolysaccharide (LPS). Briefly: Binding affinity to Escherichia coli O111:B4 LPS by SPR method.
Data set [21] has as its system Escherichia coli. Briefly: Induction of membrane disruption in Escherichia coli ATCC 25922 assessed as formation of broken membrane fragments at MBC after 1 hr by SEM analysis. It is filed as functional, organism-based.
Data set [22] is described as follows: Toxicity in ICR mouse assessed as effect on AST levels in serum at 40 mg/kg, ip administered every 12 hrs for 3 days measured at 72 hrs post dose. Conditions: in vivo. It is filed as organism-based.
For data set [23], the system named is Escherichia coli. As to the kind of experiment: Bactericidal activity against Escherichia coli O111:B4 assessed as reduction in colony forming units at MBC after 90 mins in presence of LPS. In kind it is functional, organism-based.
Data set [24] in a line: Drug localisation at cell membrane of Escherichia coli ATCC 25922 at MBC after 30 mins using FITC-labelled peptides by propidium iodide-staining based confocal fluorescent microscopy. It is filed as ADME, cell membranes. Conditions: 0.5 h.
Data set [25] is described as follows: Stability of the compound assessed as Tritirachium album proteinase K-mediated compound hydrolysis by LC-MS analysis. Conditions: parengyodontium album. It is filed as ADME.
Data set [26] deals with Escherichia coli. As to the kind of experiment: Induction of cytoplasmic membrane depolarization in Escherichia coli ATCC 25922 assessed as induction cytoplasmic ONPG release at 4 uM up to 120 mins by DiSC3-5 dye-based fluorescence spectrophotometric method. In kind it is functional, organism-based.
The test system of data set [27] is Escherichia coli. Briefly: Induction of membrane disruption in Escherichia coli ATCC 25922 assessed as outer membrane separation at MBC after 1 hr by TEM analysis. It is filed as functional, organism-based.
Data set [28] concerns Escherichia coli. As to the kind of experiment: Induction of membrane disruption in Escherichia coli ATCC 25922 assessed as pore formation at MBC after 1 hr by SEM analysis. It is filed as functional, organism-based.
The subject of data set [29] is Lipid bilayer. Briefly: Induction of membrane disruption in POPC/POPG unilamellar vesicles assessed as calcein-entrapped liposome leakage at 1 to 64 uM after 15 mins by fluorescence assay.
The subject of data set [30] is Lipopolysaccharide (LPS). As to the kind of experiment: Displacement of BODIPY-TR-cadaverine from Escherichia coli O111:B4 LPS after 1 hr by spectrofluorophotometric method.
Data set [31] in a line: Renal toxicity in ICR mouse assessed as effect on BUN levels in serum at 40 mg/kg, ip administered every 12 hrs for 3 days measured at 72 hrs post dose. Conditions: in vivo. In kind it is organism-based.
A short description of data set [32]: Cytotoxicity against mouse RAW264.7 cells assessed as survival rate at 16 uM after 18 to 24 hrs by MTT assay relative to control. In kind it is cell-based. To be noted: read-out: Activity.
For data set [33], the system named is Escherichia coli. Briefly: Induction of membrane disruption in Escherichia coli ATCC 25922 assessed as pore formation at MBC after 1 hr by TEM analysis. It is filed as functional, organism-based.
Data set [34] deals with Lipid bilayer. Briefly: Induction of membrane disruption in LPS/POPC/POPG unilamellar vesicles assessed as calcein-entrapped liposome leakage after 15 mins by fluorescence assay.
A short description of data set [35]: Toxicity in ICR mouse assessed as effect on AST levels in serum at 20 mg/kg, ip administered every 12 hrs for 3 days measured at 72 hrs post dose. Conditions: in vivo. It is filed as organism-based.
The test system of data set [36] is Escherichia coli. Briefly: Induction of membrane disruption in Escherichia coli ATCC 25922 assessed as sparse cytoplasmic distribution at MBC after 1 hr by TEM analysis. It is filed as functional, organism-based.
For data set [37], the system named is Lipopolysaccharide (LPS). As to the kind of experiment: Displacement of BODIPY-TR-cadaverine from Escherichia coli O111:B4 LPS at 4 uM after 1 hr by spectrofluorophotometric method relative to control.
In data set [38] the test system is Escherichia coli. As to the kind of experiment: Induction of outer membrane permeabilization in Escherichia coli ATCC 25922 at 1 to 64 uM by NPN-dye based assay. In kind it is organism-based.

The source made the active and inactive calls.

As to H-LKPLLKPLLKPLLKPLLKPLLKPLLKPL-NH2, the Activity with Escherichia coli [1] is given as above 99.99%.
With `CC[C@H](C)[C@H](NC(=O)CN)C(=O)NCC(=O)N[C@@H](C)C(=O)N[C@H](C(=O)N[C@@H](CC(C)C)C(=O)N[C@@H](CCCCN)C(=O)N[C@H](C(=O)N[C@@H](CC(C)C)C(=O)N[C@H](C(=O)N[C@H](C(=O)NCC(=O)N[C@@H](CC(C)C)C(=O)N1CCC[C@H]1C(=O)N[C@@H](C)C(=O)N[C@@H](CC(C)C)C(=O)N[C@H](C(=O)N[C@@H](CO)C(=O)N[C@@H](Cc1c[nH]c2ccccc12)C(=O)N[C@H](C(=O)N[C@@H](CCCCN)C(=O)N[C@@H](CCCNC(=N)N)C(=O)N[C@@H](CCCCN)C(=O)N[C@@H](CCCNC(=N)N)C(=O)N[C@@H](CCC(N)=O)C(=O)N[C@@H](CCC(N)=O)C(N)=O)[C@@H](C)CC)[C@@H](C)CC)[C@@H](C)O)[C@@H](C)O)C(C)C)C(C)C` [MELITTIN], the Stability result (on Chymotrypsin; in data set [2]; on Trypsin; in data set [4]) was “Unstable” in each case. The result with Escherichia coli [3] was Active.
For the compound H-IKPIIKPIIKPIIKPIIKPIIKPIIKPI-NH2, the hemolysis at 1 h, up to 128 µM in data set [5] was below 5%.
With H-LRPLLRPLLRPLLRPLLRPLLRPLLRPL-NH2, the hemolysis at 1 h, 128 µM in [6] was above 40%. Also, the Activity with Escherichia coli [7] is above 99.99%; in [9] it was 80%; in the data set with HEK-293T, 80%. Further, the viability at 4 µM in [8] is 7.52%.
With H-IRPIIRPIIRPIIRPIIRPIIRPIIRPI-NH2, the Activity result in data set [10] was “Non-Toxic”; in data set [11], “Toxic”; in the data set with Lipid bilayer [12], 30%; in [14], “Toxic”; with Escherichia coli [16], above 99.99%; in the data set on Lipopolysaccharide (LPS) [20], “Dose-dependent effect”. Besides, the Activity entry in data set [22] is “Non-Toxic”; in the data set with Lipopolysaccharide (LPS) [30], “Dose-dependent effect”; in data set [31] it was “Non-Toxic”; in the data set with Lipid bilayer [34], “Dose-dependent effect”; in data set [35] it was “Toxic”; in the data set on Lipopolysaccharide (LPS) [37], 70%. Besides, the inhibition result in the data set on RAW264.7 [13] and in the data set with RAW264.7 [19] was “Active” in each case. For the same compound, in data set [5], the hemolysis at 1 h, up to 128 µM was below 5%. The same compound came in with an MBC against Escherichia coli [15] of 4 µM. Also, the Stability result in data set [17] and in [25] was “Stable” each time. The result in the data set with Escherichia coli [18], in the data set with Escherichia coli [21], in the data set on Escherichia coli [26], in the data set with Escherichia coli [27], with Escherichia coli [28] and with Lipid bilayer [29] was Active. For the same compound, the outcome in the data set with Escherichia coli [33], with Escherichia coli [3], in the data set on Escherichia coli [36] and in the data set with Escherichia coli [38] was Active. Also, in the data set on Escherichia coli [23], the outcome was inactive. For the same compound, the Drug uptake result in data set [24] is recorded as “Active”. The viability at 16 µM in data set [32] was above 80%.
